Source: ChEMBL document CHEMBL3638844, “Heterocyclic kinase inhibitors” (2014)

How the values were obtained:
[1] = target: Serine/threonine-protein kinase pim-1 (Homo sapiens, UniProt P11309); experiment: ATP Depletion Assay: The activity of PIM1 is measured using a luciferase-luciferin based ATP detection reagent to quantify ATP depletion resulting from kinase-catalyzed phosphoryl transfer to a peptide substrate. Compounds to be tested are dissolved in 100% DMSO and directly distributed into white 384-well plates at 0.5 uA per well. To start the reaction, 10 ul of 5 nM Pim1 kinase and 80 uM BAD peptide (RSRHSSYPAGT-OH) in assay buffer (50 mM HEPES pH 7.5, 5 mM MgCl2, 1 mM DTT, 0.05% BSA) is added into each well. After 15 minutes, 10 ul of 40 uM ATP in assay buffer is added. Final assay concentrations are 2.5 nM PIM1, 20 uM ATP, 40 uM BAD peptide and 2.5% DMSO. The reaction is performed until approximately 50% of the ATP is depleted, then stopped with the addition of 20 ul KinaseGlo Plus (Promega Corporation) solution. The stopped reaction is incubated for 10 minutes and the remaining ATP detected via luminescence on the Victor2 (Perkin Elmer).
[2] = target: Serine/threonine-protein kinase pim-2 (Homo sapiens, UniProt Q9P1W9); experiment: ATP Depletion Assay: The activity of PIM2 is measured using a luciferase-luciferin based ATP detection reagent to quantify ATP depletion resulting from kinase-catalyzed phosphoryl transfer to a peptide substrate. Compounds to be tested are dissolved in 100% DMSO and directly distributed into white 384-well plates at 0.5 ul per well. To start the reaction, 10 ul of 10 nM Pim2 kinase and 20 uM BAD peptide (RSRHSSYPAGT-OH) in assay buffer (50 mM HEPES pH 7.5, 5 mM MgCl2, 1 mM DTT, 0.05% BSA) is added into each well. After 15 minutes, 10 ul of 8 uM ATP in assay buffer is added. Final assay concentrations are 5 nM PIM2, 4 uM ATP, 10 uM BAD peptide and 2.5% DMSO. The reaction is performed until approximately 50% of the ATP is depleted, then stopped with the addition of 20 ul KinaseGlo Plus (Promega Corporation) solution. The stopped reaction is incubated for 10 minutes and the remaining ATP detected via luminescence on the Victor2 (Perkin Elmer).
[3] = target: Serine/threonine-protein kinase pim-3 (Homo sapiens, UniProt Q86V86); experiment: ATP Depletion Assay: The activity of PIM3 is measured using a luciferase-luciferin based ATP detection reagent to quantify ATP depletion resulting from kinase-catalyzed phosphoryl transfer to a peptide substrate. Compounds to be tested are dissolved in 100% DMSO and directly distributed into white 384-well plates at 0.5 uA per well. To start the reaction, 10 ul of 10 nM Pim3 kinase and 200 uM BAD peptide (RSRHSSYPAGT-OH) in assay buffer (50 mM HEPES pH 7.5, 5 mM MgCl2, 1 mM DTT, 0.05% BSA) is added into each well. After 15 minutes, 10 ul of 80 uM ATP in assay buffer is added. Final assay concentrations are […], 40 uM ATP, 100 uM BAD peptide and 2.5% DMSO. The reaction is performed until approximately 50% of the ATP is depleted, then stopped by the addition of 20 ul KinaseGlo Plus (Promega Corporation) solution. The stopped reaction is incubated for 10 minutes and the remaining ATP detected via luminescence on the Victor2 (Perkin Elmer).

Serine/threonine-protein kinase pim-1, sequence (P11309 whole entry): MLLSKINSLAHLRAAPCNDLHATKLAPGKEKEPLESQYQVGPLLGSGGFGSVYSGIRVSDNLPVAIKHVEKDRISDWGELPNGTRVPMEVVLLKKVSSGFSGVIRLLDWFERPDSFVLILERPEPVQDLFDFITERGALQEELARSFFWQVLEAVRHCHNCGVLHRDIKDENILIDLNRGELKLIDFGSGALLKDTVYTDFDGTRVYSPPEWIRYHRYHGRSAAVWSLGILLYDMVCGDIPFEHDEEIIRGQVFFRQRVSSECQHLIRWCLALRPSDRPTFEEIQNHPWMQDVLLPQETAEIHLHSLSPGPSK
Serine/threonine-protein kinase pim-2, sequence (Q9P1W9 whole entry): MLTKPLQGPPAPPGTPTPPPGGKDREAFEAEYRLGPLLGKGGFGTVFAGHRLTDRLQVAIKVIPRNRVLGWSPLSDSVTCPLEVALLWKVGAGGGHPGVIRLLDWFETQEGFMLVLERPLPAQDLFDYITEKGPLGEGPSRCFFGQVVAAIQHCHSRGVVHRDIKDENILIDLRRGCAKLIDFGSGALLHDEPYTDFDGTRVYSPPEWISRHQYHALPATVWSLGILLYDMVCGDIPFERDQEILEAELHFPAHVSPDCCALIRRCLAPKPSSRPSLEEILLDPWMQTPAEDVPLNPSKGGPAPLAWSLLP

Compound | IC50 [1] [µM] | IC50 [2] [µM] | IC50 [3] [µM]
N[C@H]1C[C@@H](CO)CN(c2ccncc2Nc2cccc3ccc(-c4c(F)cccc4F)nc23)C1 | 0.796 | 0.286 | 
N[C@H]1C[C@@H](O)CN(c2ccncc2Nc2cccc3ccc(-c4c(F)cccc4F)nc23)C1 | 0.589 | 0.512 | 0.061
